# Values of other authors in US8052982B2, “Bioimplant formulation comprising lecithin and stearin” (Peptech Animal Health PTY Limited, priority 1998, dated 2011).
row,SMILES,log octanol/water partition (log P)
1,O=C(O)c1ccccc1Nc1cccc(C(F)(F)F)c1 [flufenamic acid],1.14
2,CC(CN1c2ccccc2Sc2ccccc21)N(C)C (centres unmarked) [promethazine],4.75
3,C[C@H](N[C@@H](CCc1ccccc1)C(=O)O)C(=O)N1Cc2ccccc2C[C@H]1C(=O)O [quinaprilate],0.69
4,C[C@@H](O)[C@@H]1NC(=O)[C@H](CCCCN)NC(=O)[C@@H](Cc2c[nH]c3ccccc23)NC(=O)[C@H](Cc2ccccc2)NC(=O)[C@@H](NC(=O)[C@H](N)Cc2ccccc2)CSSC[C@@H](C(=O)N[C@H](CO)[C@@H](C)O)NC1=O [octreotide],1.40
5,C[C@H](CS)C(=O)N1CCC[C@H]1C(=O)O [captopril],−1.86

# More lines, now with the values ahead:
row,log octanol/water partition (log P),SMILES
1,0.35,Cn1c(=O)c2c(ncn2CCO)n(C)c1=O [etofylline]
2,1.02,C[C@H](N[C@@H](CCc1ccccc1)C(=O)O)C(=O)N1[C@H](C(=O)O)C[C@H]2CCCC[C@@H]21 [trandolaprilate]
3,−0.36,CCC[C@H](N[C@@H](C)C(=O)N1[C@H](C(=O)O)C[C@@H]2CCCC[C@@H]21)C(=O)O [perindoprilate]
